# Reference: patent publication US20220281860A1, “COMPOUNDS AND METHODS OF TREATING RNA-MEDIATED DISEASES” (Arrakis Therapeutics, Inc., priority 2016, published 2022)
# Assays:
# [1] = tested on: RNA3WJ_1.0.0_5IB_3FAM (cis 3WJ with one unpaired nucleotide); assay: Thermal shift binding assay; conditions: RNA3WJ_1.0.0_5IB_3FAM; for Melting temp [° C.] + cmpd / Temp. Shift [° C.]: 1 μM RNA, 8 μM compound, 1% DMSO, 10 mM CacoK pH 7.2, 30 mM NaCl
# From the text: (§1) Purpose: Test binding of compounds for RNA three way junction (for example, a construct of 38 nt). Thermal shift assay based on established fluorescence quenching assay utilizing FAM as fluorescence tag and Iowa Black as quencher. Tags were attached at the 3′ and 5′ end, respectively. Stable formation of 3WJ upon compound binding would lead to quenching of the FAM fluorescence due to close proximity of the Iowa Black tag. Thermal unfolding leads to increase of fluorescence emission. Assay readout: FAM (465-510 nm) Thermal Shift.
# (§2) Assay sample buffer used: 10 mM CacoK pH 7.2, 30 mM NaCl. Buffer preparation in Dnase/Rnase Free distilled water (Gibco Life Technologies).
# (§3) Tool compounds provided as dry powder are prepared as 50 mM stock solution in 100% d6-DMSO. Stock solutions of 50 mM concentration in d6-DMSO are stored at RT.
# (§4) Sample plate: Roche, Light Cycler480 Multiwell Plate96, white, REF 04729692001. (Dilution plate: Greiner REF 781101, PS-Microplate, 384 well, clear). Thermal Shift device: Roche, Light Cycler480.
# (§5) Daily fresh (10 ml): 1 ml 100 mM CacoK pH 7.2 and 0.3 ml 1 M NaCl filled up to 10 ml with Dnase/Rnase Free distilled water.
# (§6) Dilute the RNA 1:10 (final 10 μM) in Assay Buffer.
# (§7) Heat up the diluted RNA up to 90° C. for 5 min (sealed Eppendorf Tube).
# (§8) Cool down the RNA probe slowly to RT.
# (§9) Dilute the compounds to 800 μM in DMSO (Assay: 8 μM).
# (§10) 78.4 μL Assay Buffer are pipetted into Greiner REF 781101, PS-Microplate, 384 (each well needed).
# (§11) Add 0.8 μL of the RNA-Solution ([…]).
# (§12) Add 0.8 μL Compound-Solution ([…]).
# (§13) Final concentrations in the sample: 1 μM RNA, 8 μM compound, 1% DMSO
# (§14) Pipet 20 μL Sample Solution into Roche, Light Cycler480 Multiwell Plate96, white, REF 04729692001.
# (§15) When sample transfer is finished, seal the plate with a clear topseal (part of REF 04729692001).
# (§16) Centrifuge the plate with a table-top device to spin down the samples.
# (§17) Measure the 96 plate with the LightCycler480 (Channel: 480/510 nm; Temperature: 41-91° C.).
# (§18) Analyse measurement-data with the MeltingCurveGenotyping Mode.
# (§19) Settings: Acquisition mode: continuous; Ramp rate: 0.1 C.°/sec; Acquisition: 6/C.° Melt Curve Genotyping for All Samples
# (§20) Melting curves analysis show melting temperature (Tm) of ˜51° C. Range of RNA concentrations was tested and assay window was determined (conc. range of 0.5-1 μM yields best results). The choice of buffer also affected the Tm. RNA constructs were tested under different buffer conditions (especially in presence of salt) in the thermal shift assay. […] CacoK with 30 mM salt at 1 μM RNA conc. was used to assess compound effects on 3WJ stability. […] These conditions were used for screening test compounds.
# (§21) Compounds Ark0000013 and Ark0000014 were also tested in the thermal shift assay against three RNA 3WJ constructs, A) RNA3WJ_1.0.0_5IB_3FAM (cis 3WJ with one unpaired nucleotide); B) Split3WJ.1_up_5IB+Split3WJ.1_down_3FAM (trans 3WJ as 1:1 mix); and C) Split3WJ.2_up_5IB+Split3WJ.2_down_3FAM (trans 3WJ as 1:1 mix).
# [2] = tested on: Split3WJ.1_up_5IB+Split3WJ.1_down_3FAM (trans 3WJ as 1:1 mix; Split3WJ_1); assay: Thermal shift binding assay; conditions: Split3WJ_1 (trans 3WJ), 1 μM RNA, 8 μM compound
# From the text: as §1, §2, §3, §4, §5, §6, §7, §8, §9, §10, §11, §12, §13, §14, §15, §16, §17, §18, §19, §20, §21
# [3] = tested on: Split3WJ.2_up_5IB+Split3WJ.2_down_3FAM (trans 3WJ as 1:1 mix; Split3WJ_2); assay: Thermal shift binding assay; conditions: Split3WJ_2 (trans 3WJ), 1 μM RNA, 8 μM compound
# From the text: as §1, §2, §3, §4, §5, §6, §7, §8, §9, §10, §11, §12, §13, §14, §15, §16, §17, §18, §19, §20, §21
# RNA3WJ_3.0.0_5IB_3FAM = assay: Thermal shift binding assay; conditions: 1 μM RNA, 8 μM compound
# From the text: as §1, §2, §3, §4, §5, §6, §7, §8, §9, §10, §11
# Add 0.8 μL Compound-Solution ([…]). […]
# as §14, §15, §16, §17, §18, §19, §20
# [4] = tested on: RNA3WJ_1.0.0_5IB_3FAM (cis 3WJ with one unpaired nucleotide); assay: Fluorescence quenching binding assay; conditions: cis 3WJ RNA3WJ_1.0.0_5IB_3FAM; two concentration points; FIG. 109
# Description: (§22) This assay will be used to test binding of compounds for RNA three way junction (such as a 38 nt construct). This is a fluorescence quenching assay utilizing FAM as fluorescence tag and Iowa Black as quencher. Tags are attached at the 3′ and 5′ end, respectively. Stable formation of MW upon compound binding would lead to quenching of the FAM fluorescence due to close proximity of the Iowa Black tag. Assay readout: FAM (485-520 nm) Fluorescence Intensity.
# as §2, §3
# (§23) Sample plate: Greiner cat #784076, black, 384 (Dilution plate: Greiner REF 781101, PS-Microplate, 384 well, clear). Fluorescence Intensity device: Envision 1040285
# (§24) Daily fresh (10 ml): 1 ml 100 mM CacoK pH 7.2 and 0.3 ml 1 M NaCl filled up to 10 ml with Dnase/Rnase Free distilled water […]
# (§25) Calibration of the expected fluorescence signal at various RNA concentrations in either CacoK or NaPO4 buffers was performed first. Experiments in buffers containing salt show distinct fluorescence quenching behavior. […]
# (§26) The fluorescence quenching experiment was repeated for compounds Ark0000013 and Ark0000014 to measure binding with: […]
# [5] = tested on: Split3WJ.1_up_5IB+Split3WJ.1_down_3FAM (trans 3WJ as 1:1 mix); assay: Fluorescence quenching binding assay; conditions: trans 3WJ Split3WJ.1; two concentration points; FIG. 109
# Description: as §22, §2, §3, §23, §24, §25, §26
SMILES,Melting temp [° C.] + cmpd [1],Temp. Shift [° C.] [1],"Effect in the melting curves (in words) ([1]; FIG. 111, listed as Ark000013)",Melting temp [° C.] + cmpd [2],Temp. Shift [° C.] [2],Temp. Shift [° C.] ([2]; listed as Ark000013),Melting temp [° C.] + cmpd [3],Temp. Shift [° C.] [3],Temp. Shift [° C.] ([3]; listed as Ark000013),Melting temp [° C.] + cmpd (RNA3WJ_3.0.0_5IB_3FAM),Temp. Shift [° C.] (RNA3WJ_3.0.0_5IB_3FAM),Effect in fluorescence quenching assay [4],Effect in fluorescence quenching assay [5],Melting temp [° C.] + cmpd ([1]; listed as Ark000014),Temp. Shift [° C.] ([1]; listed as Ark000014),Melting temp [° C.] + cmpd ([2]; listed as Ark000014),Temp. Shift [° C.] ([2]; listed as Ark000014),Melting temp [° C.] + cmpd ([3]; listed as Ark000014),Temp. Shift [° C.] ([3]; listed as Ark000014)
"CN(CCCN)CCCNC(=O)c1ccc2c(c1)C1c3cc(C(=O)NCCCN(C)CCCN)ccc3C2c2ccc(C(=O)NCCCN(C)CCCN)cc21 [Ark0000013, N^2,N^7,N^15-tris(3-((3-aminopropyl)(methyl)amino)propyl)-9,10-dihydro-9,10-[1,2]benzenoanthracene-2,7,15-tricarboxamide]",87.0 °C,21.4 °C,significant effect,58.2 °C,20.4 °C,~21 °C,56.9 °C,12.2 °C,~13 °C,83.7 °C,21.7 °C,significant concentration dependent effect,significant concentration dependent effect,,,,,,
"NCCCCCCCNC(=O)c1ccc2c(c1)C1c3cc(C(=O)NCCCCCCCN)ccc3C2c2ccc(C(=O)NCCCCCCCN)cc21 [Ark0000014, N^2,N^7,N^15-tris(7-aminoheptyl)-9,10-dihydro-9,10-[1,2]benzenoanthracene-2,7,15-tricarboxamide]",68.1 °C,2.5 °C,,37.8 °C,0.3 °C,,44.0 °C,−0.3 °C,,63.9 °C,1.9 °C,smaller effect,smaller effect,68.4 °C,~3 °C,38.8 °C,~1 °C,44.7 °C,~1 °C
